pIC50: −log10 of the molar value.
Experiments:
[1] = molecular target: T1, Phosphatidylinositol 4,5-bisphosphate 3-kinase catalytic subunit delta isoform (Homo sapiens, UniProt O00329); assay: PI3Kdelta Scintillation Proximity Assay; details: pH 6.7; 25 °C
T1 sequence (O00329 whole entry): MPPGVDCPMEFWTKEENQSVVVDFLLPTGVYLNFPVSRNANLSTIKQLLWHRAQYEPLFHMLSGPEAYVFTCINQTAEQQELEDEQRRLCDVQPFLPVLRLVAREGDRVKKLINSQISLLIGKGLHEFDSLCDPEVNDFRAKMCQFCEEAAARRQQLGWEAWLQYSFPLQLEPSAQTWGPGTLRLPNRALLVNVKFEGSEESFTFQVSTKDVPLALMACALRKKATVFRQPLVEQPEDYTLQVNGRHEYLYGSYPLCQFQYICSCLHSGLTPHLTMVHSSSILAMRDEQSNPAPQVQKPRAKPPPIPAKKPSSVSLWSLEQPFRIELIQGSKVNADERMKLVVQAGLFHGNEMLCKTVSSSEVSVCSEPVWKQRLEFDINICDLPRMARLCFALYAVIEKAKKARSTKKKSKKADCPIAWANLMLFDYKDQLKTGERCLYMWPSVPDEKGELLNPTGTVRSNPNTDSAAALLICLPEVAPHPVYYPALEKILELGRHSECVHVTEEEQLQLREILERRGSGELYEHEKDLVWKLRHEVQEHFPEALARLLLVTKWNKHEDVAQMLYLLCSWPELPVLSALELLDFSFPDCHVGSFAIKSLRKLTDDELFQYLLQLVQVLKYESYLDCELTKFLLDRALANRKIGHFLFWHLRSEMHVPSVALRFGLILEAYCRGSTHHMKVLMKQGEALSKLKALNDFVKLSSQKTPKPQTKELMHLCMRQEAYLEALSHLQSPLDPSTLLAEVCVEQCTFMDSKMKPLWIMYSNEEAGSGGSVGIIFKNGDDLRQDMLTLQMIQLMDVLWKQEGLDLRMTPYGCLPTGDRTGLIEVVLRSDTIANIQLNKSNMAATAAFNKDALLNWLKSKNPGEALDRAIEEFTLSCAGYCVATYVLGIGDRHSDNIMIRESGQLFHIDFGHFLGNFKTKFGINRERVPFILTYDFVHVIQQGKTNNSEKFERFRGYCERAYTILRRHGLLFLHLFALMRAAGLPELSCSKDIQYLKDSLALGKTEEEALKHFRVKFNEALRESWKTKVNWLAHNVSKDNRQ
From the text: [γ-33P]ATP (10 mCi/mL) and Wheat Germ Agglutinin (WGA) YSi SPA Scintillation Beads was purchased from Perkin-Elmer (Waltham, Mass.). Lipid kinase substrate, D-myo-Phosphatidylinositol 4,5-bisphosphate (PtdIns(4,5)P2)D (+)-sn-1,2-di-O-octanoylglyceryl, 3-O-phospho linked (PIP2), CAS 204858-53-7, was purchased from Echelon Biosciences (Salt Lake City, Utah). PI3Kδ (p110δ/p85α) Recombinant Human Protein was purchased from Eurofins (St. Charles, Mo.). ATP, MgCl2, DTT, EDTA, MOPS and CHAPS were purchased from Sigma-Aldrich (St. Louis, Mo.).The kinase reaction was conducted in polystyrene 384-well Greiner Bio-one white plate from Thermo Fisher Scientific in a final volume of 25 μL. Inhibitors were first diluted serially in DMSO and added to the plate wells before the addition of other reaction components. The final concentration of DMSO in the assay was 2%. The PI3Kδ assay was carried out at room temperature in 20 mM MOPS, pH 6.7, 10 mM MgCl2, 5 mM DTT and CHAPS 0.03%. Reactions were initiated by the addition of ATP, the final reaction mixture consisted of 20 μM PIP2, 2 μM ATP, 0.5 μCi [γ-33P] ATP, 3.4 nM PI3Kδ. Reactions were incubated for 120 min and terminated by the addition of 40 μL SPA beads suspended in quench buffer: 163 mM potassium phosphate pH 7.8, 20% glycerol, 25 mM EDTA. The final concentration of SPA beads is 1.0 mg/mL. After the plate sealing, plates were shaken overnight at room temperature and centrifuged at 1500 rpm for 10 min, the radioactivity of the product was determined by scintillation counting on Topcount (Perkin-Elmer). IC50 determination was performed by fitting the curve of percent of the solvent control activity versus the log of the inhibitor concentration using the GraphPad Prism 6.0 software.

[2] = molecular target: Phosphatidylinositol 4,5-bisphosphate 3-kinase catalytic subunit gamma isoform (Homo sapiens, UniProt P48736); assay: PI3K-gamma Scintillation Proximity Assay; details: pH 6.7; 25 °C
Phosphatidylinositol 4,5-bisphosphate 3-kinase catalytic subunit gamma isoform, sequence (P48736 whole entry, canonical isoform): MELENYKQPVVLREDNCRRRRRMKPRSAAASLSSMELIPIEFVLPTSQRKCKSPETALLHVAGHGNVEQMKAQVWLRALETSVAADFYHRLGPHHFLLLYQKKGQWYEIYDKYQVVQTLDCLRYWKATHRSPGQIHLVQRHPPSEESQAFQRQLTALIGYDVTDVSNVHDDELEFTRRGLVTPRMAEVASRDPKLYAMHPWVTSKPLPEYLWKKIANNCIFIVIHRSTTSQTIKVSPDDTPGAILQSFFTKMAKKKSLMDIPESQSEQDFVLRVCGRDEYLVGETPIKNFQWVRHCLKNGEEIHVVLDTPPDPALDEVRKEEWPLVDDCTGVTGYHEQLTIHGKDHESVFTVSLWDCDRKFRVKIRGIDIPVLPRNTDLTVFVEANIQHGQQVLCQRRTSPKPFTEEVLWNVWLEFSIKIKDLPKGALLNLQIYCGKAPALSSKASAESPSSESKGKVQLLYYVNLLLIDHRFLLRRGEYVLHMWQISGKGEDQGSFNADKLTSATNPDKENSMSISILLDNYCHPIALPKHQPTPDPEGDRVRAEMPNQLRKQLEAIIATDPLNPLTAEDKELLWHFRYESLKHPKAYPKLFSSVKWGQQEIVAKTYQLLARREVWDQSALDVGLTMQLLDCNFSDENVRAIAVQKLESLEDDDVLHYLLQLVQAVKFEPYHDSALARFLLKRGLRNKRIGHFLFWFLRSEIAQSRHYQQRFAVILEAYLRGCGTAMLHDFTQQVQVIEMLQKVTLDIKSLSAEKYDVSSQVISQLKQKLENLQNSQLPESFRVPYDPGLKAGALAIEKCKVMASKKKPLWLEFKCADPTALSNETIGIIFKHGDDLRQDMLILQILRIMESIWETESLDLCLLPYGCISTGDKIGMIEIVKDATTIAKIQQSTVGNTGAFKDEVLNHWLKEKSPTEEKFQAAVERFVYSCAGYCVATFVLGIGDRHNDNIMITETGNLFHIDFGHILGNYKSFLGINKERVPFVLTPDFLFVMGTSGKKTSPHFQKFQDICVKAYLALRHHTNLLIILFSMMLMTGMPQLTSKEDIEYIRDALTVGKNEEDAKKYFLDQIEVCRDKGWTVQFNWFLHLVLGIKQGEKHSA
From the text: γ-33P]ATP (10 mCi/mL) and Wheat Germ Agglutinin (WGA) YSi SPA Scintillation Beads was purchased from Perkin-Elmer (Waltham, Mass.). Lipid kinase substrate, D-myo-Phosphatidylinositol 4,5-bisphosphate (PtdIns(4,5)P2)D (+)-sn-1,2-di-O-octanoylglyceryl, 3-O-phospho linked (PIP2), CAS 204858-53-7, was purchased from Echelon Biosciences (Salt Lake City, Utah). PI3Kγ (p110γ) Recombinant Human Protein was purchased from Life technology (Grand Island, N.Y.). ATP, MgCl2, DTT, EDTA, MOPS and CHAPS were purchased from Sigma-Aldrich (St. Louis, Mo.).The kinase reaction was conducted in polystyrene 384-well Greiner Bio-one white plate from Thermo Fisher Scientific in a final volume of 25 μL. Inhibitors were first diluted serially in DMSO and added to the plate wells before the addition of other reaction components. The final concentration of DMSO in the assay was 2%. The PI3Kγ assay was carried out at room temperature in 20 mM MOPS, pH 6.7, 10 mM MgCl2, 5 mM DTT and CHAPS 0.03%. Reactions were initiated by the addition of ATP, the final reaction mixture consisted of 20 μM PIP2, 2 μM ATP, 0.5 μCi [γ-33P] ATP, 13 nM PI3Kγ. […] After the plate sealing, plates were shaken overnight at room temperature and centrifuged at 1500 rpm for 10 min, the radioactivity of the product was determined by scintillation counting on Topcount (Perkin-Elmer). […]

SMILES | pIC50 [1] | pIC50 [2]
COc1cncc(-c2ccc3nc(-c4cc5ccccc5[nH]4)oc3c2)c1 [US10022387, Example 4] | > 5.30 | 
CC(=O)Nc1cc(-c2ccc3nc(-c4nc5ccccc5[nH]4)oc3c2)cnc1F [US10022387, Example 33] | < 5.30 | > 6.00
CCS(=O)(=O)Nc1cncc(-c2ccc3nc(-c4nc5ccccc5[nH]4)oc3c2)c1 [US10022387, Example 73] | > 5.30 | 
